Legend:
Rattus norvegicus [1] = assay: Serum NEFA levels in female obese rats one week post treatment at 30 mg/kg oral dose; pretreatment value = 1.3 mg/dL; type: functional
Rattus norvegicus [2] = assay: Insulin levels in female obese rats one week post treatment at 3 mg/kg oral dose; pretreatment value = 12.9 ng/mL; type: functional
Rattus norvegicus [3] = assay: Serum NEFA levels in female obese rats two weeks post treatment at 10 mg/kg oral dose; pretreatment value = 1.2 mg/dL; type: functional
Rattus norvegicus [4] = assay: Blood glucose levels in female obese rats one week post treatment at 30 mg/kg oral dose; pretreatment value = 109 mg/dL; type: functional
Rattus norvegicus [5] = assay: Serum Triglyceride levels in female obese rats one week post treatment at 30 mg/kg oral dose; pretreatment value = 1240 mg/dL; type: functional
Rattus norvegicus [6] = assay: Blood glucose levels in female obese rats two weeks post treatment at 10 mg/kg oral dose; pretreatment value = 110 mg/dL; type: functional
Rattus norvegicus [7] = assay: Insulin levels in female obese rats one week post treatment at 30 mg/kg oral dose; pretreatment value = 9 ng/mL; type: functional
Rattus norvegicus [8] = assay: Blood glucose levels in female obese rats two weeks post treatment at 3 mg/kg oral dose; pretreatment value = 115 mg/dL; type: functional
Rattus norvegicus [9] = assay: Serum Triglyceride levels in female obese rats one week post treatment at 100 mg/kg oral dose; pretreatment value = 1068 mg/dL; type: functional
Rattus norvegicus [10] = assay: Serum Non-HDL cholesterol levels in female obese rats one week post treatment at 10 mg/kg oral dose; pretreatment value = 33 mg/dL
Rattus norvegicus [11] = assay: Insulin levels in female obese rats two weeks post treatment at 100 mg/kg oral dose; pretreatment value = 8.6 ng/mL; type: functional
Rattus norvegicus [12] = assay: Insulin levels in female obese rats one week post treatment at 3 mg/kg oral dose; pretreatment value = 13.3 ng/mL; type: functional

Compound | Activity (Rattus norvegicus [1]) [mg/dL] | Activity (Rattus norvegicus [2]) [ng/mL] | Activity (Rattus norvegicus [3]) [mg/dL] | Activity (Rattus norvegicus [4]) [mg/dL] | Activity (Rattus norvegicus [5]) [mg/dL] | Activity (Rattus norvegicus [6]) [mg/dL] | Activity (Rattus norvegicus [7]) [ng/mL] | Activity (Rattus norvegicus [8]) [mg/dL] | Activity (Rattus norvegicus [9]) [mg/dL] | Activity (Rattus norvegicus [10]) [mg/dL] | Activity (Rattus norvegicus [11]) [ng/mL] | Activity (Rattus norvegicus [12]) [ng/mL]
CC(C)(CO)CCCCOCCCCC(C)(C)CO | 0.76 | 15.1 | 1.1 | 140 | 271 |  |  |  |  |  |  | 
CC(C)(CO)CCCCCOCCCCCC(C)(C)CO |  |  |  |  |  | 119 | 12.4 | 114 | 83 | 40 | 4.4 | 12.2

From ChEMBL document CHEMBL1137218, “Long hydrocarbon chain ether diols and ether diacids that favorably alter lipid disorders in vivo” (J Med Chem, 2004)
